Experimental data from US11117900B2 (Vertex Pharmaceuticals Incorporated, priority 2012, dated 2021).

Test system: HCT116 colorectal cancer cells
Assay: Cisplatin sensitization assay (96 h MTS cell viability);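 also: compound concentration needed to lower the IC50 of Cisplatin alone by a set fold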
Assay type: cell-based
Conditions: Cisplatin sensitization value
Procedure, shortened: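 The MTS viability read, after 1 h with reagent, followed 96 h of co-treatment at 37° C. in 5% CO2. Both compound and cisplatin were titrated 2-fold from a 10 μM top final concentration in a complete concentration matrix on HCT116 cells. Scores +++/++/+ reflect cisplatin sensitization value ranges.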

SMILES	Cisplatin Sensitization Assay
CN(C)CC(=O)N1CCN(c2c(F)cncc2NC(=O)c2c(N)nn3cc(F)cnc23)CC1 [I-N-153, 2-amino-N-(4-(4-(2-(dimethylamino)acetyl)piperazin-1-yl)-5-fluoropyridin-3-yl)-6-fluoropyrazolo[1,5-a]pyrimidine-3-carboxamide]	++ (Compounds with a Cisplatin sensitization value >0.02 μM but <0.2 μM are marked with “++.”)
CN1CCC(OC2CCN(c3ccncc3NC(=O)c3c(N)nn4cc(F)cnc34)CC2)CC1 [I-N-154, 2-amino-6-fluoro-N-(4-(4-((1-methylpiperidin-4-yl)oxy)piperidin-1-yl)pyridin-3-yl)pyrazolo[1,5-a]pyrimidine-3-carboxamide]	+++ (Compounds with a Cisplatin sensitization value of <0.02 μM are marked with “+++.”)
Nc1nn2cc(F)cnc2c1C(=O)Nc1cncc(F)c1N1CCC(S(=O)(=O)N2CCOCC2)CC1 [I-N-155, 2-amino-6-fluoro-N-(5-fluoro-4-(4-(morpholinosulfonyl)piperidin-1-yl)pyridin-3-yl)pyrazolo[1,5-a]pyrimidine-3-carboxamide]	+++ (Compounds with a Cisplatin sensitization value of <0.02 μM are marked with “+++.”)
CN1CCC(C(=O)N2CCN(c3c(F)cncc3NC(=O)c3c(N)nn4cc(F)cnc34)CC2)C1 (stereo not shown) [I-N-156, 2-amino-6-fluoro-N-(5-fluoro-4-(4-(1-methylpyrrolidine-3-carbonyl)piperazin-1-yl)pyridin-3-yl)pyrazolo[1,5-a]pyrimidine-3-carboxamide]	+++ (Compounds with a Cisplatin sensitization value of <0.02 μM are marked with “+++.”)
CN1CCC[C@H]1C(=O)N1CCN(c2c(F)cncc2NC(=O)c2c(N)nn3cc(F)cnc23)CC1 [I-N-157, (S)-2-amino-6-fluoro-N-(5-fluoro-4-(4-(1-methylpyrrolidine-2-carbonyl)piperazin-1-yl)pyridin-3-yl)pyrazolo[1,5-a]pyrimidine-3-carboxamide]	++ (Compounds with a Cisplatin sensitization value >0.02 μM but <0.2 μM are marked with “++.”)
Nc1nn2cc(F)cnc2c1C(=O)Nc1cncc(F)c1N1CCN(S(=O)(=O)C2CCOCC2)CC1 [I-N-158, 2-amino-6-fluoro-N-(5-fluoro-4-(4-((tetrahydro-2H-pyran-4-yl)sulfonyl)piperazin-1-yl)pyridin-3-yl)pyrazolo[1,5-a]pyrimidine-3-carboxamide]	+++ (Compounds with a Cisplatin sensitization value of <0.02 μM are marked with “+++.”)
Nc1nn2cc(F)cnc2c1C(=O)Nc1cncc(F)c1N1CCN(S(=O)(=O)C2CC2)CC1 [I-N-159, 2-amino-N-(4-(4-(cyclopropylsulfonyl)piperazin-1-yl)-5-fluoropyridin-3-yl)-6-fluoropyrazolo[1,5-a]pyrimidine-3-carboxamide]	+++ (Compounds with a Cisplatin sensitization value of <0.02 μM are marked with “+++.”)
Nc1nn2cc(F)cnc2c1C(=O)Nc1cncc(F)c1N1CCN(C(=O)CN2CCC2)CC1 [I-N-160, 2-amino-N-(4-(4-(2-(azetidin-1-yl)acetyl)piperazin-1-yl)-5-fluoropyridin-3-yl)-6-fluoropyrazolo[1,5-a]pyrimidine-3-carboxamide]	+++ (Compounds with a Cisplatin sensitization value of <0.02 μM are marked with “+++.”)
Cc1ncn(-c2ccncc2NC(=O)c2c(N)nn3cc(F)cnc23)n1 [I-N-161, 2-amino-6-fluoro-N-(4-(3-methyl-1H-1,2,4-triazol-1-yl)pyridin-3-yl)pyrazolo[1,5-a]pyrimidine-3-carboxamide]	+ (Compounds with a Cisplatin sensitization value >0.2 μM but <5 μM are marked with “+.”)
Cc1ncnn1-c1ccncc1NC(=O)c1c(N)nn2cc(F)cnc12 [I-N-162, 2-amino-6-fluoro-N-(4-(5-methyl-1H-1,2,4-triazol-1-yl)pyridin-3-yl)pyrazolo[1,5-a]pyrimidine-3-carboxamide]	++ (Compounds with a Cisplatin sensitization value >0.02 μM but <0.2 μM are marked with “++.”)
